Measured values published in patent US11479546B2, “Antimalarial hexahydropyrimidine analogues” (UCB Biopharma SRL, priority 2018, dated 2022).

System: Plasmodium falciparum 3D7
Assay: P. falciparum 3D7 asexual blood stage assay, Assay Procedure Version 2 (SYBR green readout)
Type: cell-based
Settings: Plasmodium falciparum, 3D7, Erythrocyte, 72 h, Version 2 of the assay procedure (asterisk *); 72 h incubation in infected erythrocytes; 50,000 nM to 15 nM
Summary of the method: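 P. falciparum 3D7 in A+ erythrocytes (5% haematocrit, 0.5% parasitaemia) exposed 72 h at 37 °C (1% O2, 3% CO2) to 20-point 1.5-fold titrations, final 50,000–15 nM in 0.5% DMSO. SYBR green in lysis buffer overnight, fluorescence 485/528 nm; % inhibition vs mefloquine and DMSO controls, EC50 from biphasic two-site fit.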

| SMILES | IC50 [nM] |
| --- | --- |
| CC(C)(C)c1ncc(Nc2cccc([C@]3(C)CC(=O)N(C4CCOCC4)C(=N)N3)c2Cl)cn1 [Example 62, (6S)-6-{3-[(2-tert-Butyl-pyrimidin-5-yl)amino]-2-chloro-phenyl}-2-imino-6-methyl-3-(tetrahydropyran-4-yl)-hexahydropyrimidin-4-one] | 226 |
| C[C@@]1(c2cccc(Nc3ccc(C(F)(F)F)cc3C#N)c2Cl)CC(=O)N(C2CCOCC2)C(=N)N1 [Example 83, 2-{2-Chloro-3-[(4S)-2-imino-4-methyl-6-oxo-1-(tetrahydro-pyran-4-yl)hexahydropyrimidin-4-yl]anilino}-5-(trifluoro-methyl)benzonitrile] | 357 |
| CC(=O)N1CCc2cc(Nc3cccc([C@]4(C)CC(=O)N(C5CCOCC5)C(=N)N4)c3Cl)ccc21 [Example 65, (6S)-6-{3-[(1-Acetylindolin-5-yl)amino]-2-chlorophenyl}-2-imino-6-methyl-3-(tetrahydro-pyran-4-yl)hexahydropyrimidin-4-one] | 458 |
| Cc1ccc(Nc2cccc([C@]3(C)CC(=O)N([C@H]4C[C@](O)(C(F)(F)F)C4)C(=N)N3)c2Cl)cn1 [Example 152, (6S)-6-{2-Chloro-3-[(6-methyl-pyridin-3-yl)amino]phenyl}-3-[3-hydroxy-3-(trifluoromethyl)-cyclobutyl]-2-imino-6-methyl-hexahydropyrimidin-4-one (cis isomer)] | 613 |
| CC1(C)CC(N2C(=N)N[C@](C)(c3cccc(Nc4ccc(C(C)(C)C)nc4)c3Cl)CC2=O)CCO1 (single isomer, unassigned) [Example 148, (6S)-6-{3-[(6-tert-Butylpyridin-3-yl)amino]-2-chlorophenyl}-3-[(4S*)-2,2-dimethyltetrahydro-pyran-4-yl]-2-imino-6-methyl-hexahydropyrimidin-4-one] | 368 |

Next, values leading:

| IC50 [nM] | SMILES |
| --- | --- |
| 425 | C[C@@]1(c2cccc(Nc3cncc4ccccc34)c2Cl)CC(=O)N(C2CCOCC2)C(=N)N1 [Example 46, (6S)-6-[2-Chloro-3-(isoquinolin-4-ylamino)phenyl]-2-imino-6-methyl-3-(tetrahydropyran-4-yl)hexahydropyrimidin-4-one] |
| 433 | COc1nc(C)ccc1Nc1cccc([C@]2(C)CC(=O)N(C3CCOCC3)C(=N)N2)c1Cl [Example 55, (6S)-6-{2-Chloro-3-[(2-methoxy-6-methylpyridin-3-yl)-amino]phenyl}-2-imino-6-methyl-3-(tetrahydropyran-4-yl)hexahydropyrimidin-4-one] |
| 1460 | C[C@@]1(c2cccc(Nc3cccc(Oc4ccccc4)c3)c2Cl)CC(=O)N(C2CCOCC2)C(=N)N1 [Example 75, (6S)-6-[2-Chloro-3-(3-phenoxy-anilino)phenyl]-2-imino-6-methyl-3-(tetrahydropyran-4-yl)hexahydropyrimidin-4-one] |
| 519 | C[C@@]1(c2cccc(Nc3ccc(-n4cncn4)nc3)c2Cl)CC(=O)N(C2CCOCC2)C(=N)N1 [Example 114, (6S)-6-(2-Chloro-3-{[6-(1,2,4-triazol-1-yl)pyridin-3-yl]-amino}phenyl)-2-imino-6-methyl-3-(tetrahydropyran-4-yl)hexahydropyrimidin-4-one] |
| 456 | Cc1nn(-c2ccccc2)c(C)c1Nc1cccc([C@]2(C)CC(=O)N(C3CCOCC3)C(=N)N2)c1Cl [Example 186, (6S)-6-{2-Chloro-3-[(3,5-dimethyl-1-phenylpyrazol-4-yl)-amino]phenyl}-2-imino-6-methyl-3-(tetrahydropyran-4-yl)hexahydropyrimidin-4-one] |
| 579 | Cc1cccc(C)c1Nc1cccc([C@]2(C)CC(=O)N(C3CCOCC3)C(=N)N2)c1Cl [Example 69, (6S)-6-[2-Chloro-3-(2,6-dimethylanilino)phenyl]-2-imino-6-methyl-3-(tetrahydro-pyran-4-yl)hexahydropyrimidin-4-one] |
| 468 | COc1ncc(Nc2cccc([C@]3(C)CC(=O)N(C4CCOCC4)C(=N)N3)c2Cl)cc1F [Example 49, (6S)-6-{2-Chloro-3-[(5-fluoro-6-methoxypyridin-3-yl)amino]-phenyl}-2-imino-6-methyl-3-(tetrahydropyran-4-yl)-hexahydropyrimidin-4-one] |
